By IC50 is commonly meant the concentration at which inhibition is half-maximal. Read a low IC50 as higher potency.

Our source for the IC50 values is patent publication US6262104A, “Diarylalkenylamine derivatives” (SmithKline Beecham p.l.c., priority 1995, dated 2001).

Structures can show the parent of a compound that is named as a salt.

The target of this assay is T1, delta (Mus musculus, UniProt P32300).
T1 construct: Vasa deferentia were obtained from CD-1 mice; from tissue; host or cells: vas deferens of CD-1 mice
Put plainly: Mouse vas deferens (MVD) bioassay, delta agonist/antagonist activity. The note with it: CD-1 mouse vasa deferentia, electrically stimulated, Mg2+-free Krebs buffer, 37° C. How it is done: The delta agonist/antagonist activity of the compounds of the present invention is determined in the mouse vas deferens (MVD) bioassay as described below.
Vasa deferentia were obtained from CD-1 mice and were suspended in a Mg^2+ - free Krebsa buffer at 37° C. The tissues were electrically stimulated with pulse trains having the following parameters: train duration 50 ms, stimulus duration 2 ms, frequency of stimuli 50 Hz, maximal voltage 60-70 V, train frequency 0.1 Hz. Concentration response curves for each compounds were constructed cumulatively. Linear regression analysis and IC50 concentrations were evaluated according to Talarida and Murray (Manual of Pharmacological Calculations, Springer Verlag NY, 1981).

T1 sequence (P32300 whole entry): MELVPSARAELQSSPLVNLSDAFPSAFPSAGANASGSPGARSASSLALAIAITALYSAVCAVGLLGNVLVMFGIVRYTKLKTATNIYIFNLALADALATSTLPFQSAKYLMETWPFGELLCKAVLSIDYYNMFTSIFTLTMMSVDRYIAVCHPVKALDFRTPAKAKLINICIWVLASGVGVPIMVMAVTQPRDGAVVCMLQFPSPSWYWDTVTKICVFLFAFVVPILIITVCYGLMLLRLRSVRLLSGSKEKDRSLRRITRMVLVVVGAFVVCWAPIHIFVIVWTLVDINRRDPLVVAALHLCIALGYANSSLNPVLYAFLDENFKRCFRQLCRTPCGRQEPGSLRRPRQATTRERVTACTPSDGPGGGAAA

`CCN(CC)C(=O)c1ccc(/C(=C\CN2CCCC2)c2cccc(O)c2)cc1` [Example 2, (E)-N,N-Diethyl-4-[[1-(3-hydroxyphenyl)-3-pyrrolidin-1-yl]-1-propenyl]benzamide citrate] showed a concentration for half-maximal inhibition (IC50) of 30 nM.
